In patent publication US9156858B2, “Boronic acid derivatives and therapeutic uses thereof” (priority 2012, dated 2015):
Read-outs that look alike come from different tables or passages of the source.

Legend:
[1] = tested on: ec308 (SHV-5); experiment: Aztreonam MIC of test strain; format: cell-based; conditions: read-out: Aztreonam MIC
[2] = tested on: ECL1002 (class C); experiment: Aztreonam MIC of test strain; format: cell-based; conditions: read-out: Aztreonam MIC
[3] = tested on: KP1010 (SHV-12); experiment: Tigemonam potentiation (MPC@4); format: cell-based; conditions: BLI concentration inhibiting growth with 4 μg/mL tigemonam; class A
[4] = tested on: KP1005 (CTX-M-14); experiment: Aztreonam potentiation (MPC@4); format: cell-based; conditions: BLI concentration inhibiting growth with 4 μg/mL aztreonam; class A
[5] = target: CMY-2 (Klebsiella pneumoniae, UniProt Q48434); experiment: biochemical
Chain of CMY-2 (Q48434 21-381): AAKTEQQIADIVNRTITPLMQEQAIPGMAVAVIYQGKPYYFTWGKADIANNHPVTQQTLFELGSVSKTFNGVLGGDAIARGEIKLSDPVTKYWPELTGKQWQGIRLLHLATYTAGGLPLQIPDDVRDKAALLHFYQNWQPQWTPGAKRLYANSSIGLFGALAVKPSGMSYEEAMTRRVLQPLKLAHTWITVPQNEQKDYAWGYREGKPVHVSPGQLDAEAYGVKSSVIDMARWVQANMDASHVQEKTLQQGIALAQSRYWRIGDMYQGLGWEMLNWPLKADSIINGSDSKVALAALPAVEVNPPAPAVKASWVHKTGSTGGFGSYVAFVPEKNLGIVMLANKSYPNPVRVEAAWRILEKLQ

[6] = target: CTX-M-14 (Escherichia coli, UniProt Q9L5C7); experiment: Inhibition of nitrocefin cleavage by purified enzyme; format: biochemical; conditions: nitrocefin reporter substrate, 10 min preincubation, read-out: Ki (CTX-M-14, NCF)
Chain of CTX-M-14 (Q9L5C7 entry or part of it): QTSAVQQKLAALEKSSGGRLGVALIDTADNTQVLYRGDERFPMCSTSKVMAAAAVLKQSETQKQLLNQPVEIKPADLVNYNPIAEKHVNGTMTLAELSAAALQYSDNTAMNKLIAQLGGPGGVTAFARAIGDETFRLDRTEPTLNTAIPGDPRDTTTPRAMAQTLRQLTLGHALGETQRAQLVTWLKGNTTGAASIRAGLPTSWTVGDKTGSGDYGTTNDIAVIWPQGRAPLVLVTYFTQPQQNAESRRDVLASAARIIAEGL
Protocol: (§1) Ki values of inhibition of purified class A, C and D enzymes were determined spectrophotometrically using nitrocefin as reporter substratre. Purified enzymes were mixed with various concentrations of inhibitors in reaction buffer and incubated for 10 min at room temperature. Nitrocefin was added and substrate cleavage profiles were recorded at 490 nm every 10 sec for 10 min.

[7] = target: KPC-2 (Klebsiella pneumoniae, UniProt Q9F663); experiment: as above; format: biochemical
Chain of KPC-2 (Q9F663 25-293 limits assumed): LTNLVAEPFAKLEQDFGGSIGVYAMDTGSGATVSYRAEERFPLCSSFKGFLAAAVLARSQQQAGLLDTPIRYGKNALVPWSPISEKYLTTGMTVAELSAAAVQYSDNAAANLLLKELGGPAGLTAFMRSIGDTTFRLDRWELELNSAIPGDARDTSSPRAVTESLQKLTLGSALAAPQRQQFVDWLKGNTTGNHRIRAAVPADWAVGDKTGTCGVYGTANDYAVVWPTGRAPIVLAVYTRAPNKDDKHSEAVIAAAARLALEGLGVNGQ
Protocol: as §1

[8] = target: OXA-48 (Klebsiella pneumoniae, UniProt Q6XEC0); experiment: as above; format: biochemical
Chain of OXA-48 (Q6XEC0 23-265 limits assumed): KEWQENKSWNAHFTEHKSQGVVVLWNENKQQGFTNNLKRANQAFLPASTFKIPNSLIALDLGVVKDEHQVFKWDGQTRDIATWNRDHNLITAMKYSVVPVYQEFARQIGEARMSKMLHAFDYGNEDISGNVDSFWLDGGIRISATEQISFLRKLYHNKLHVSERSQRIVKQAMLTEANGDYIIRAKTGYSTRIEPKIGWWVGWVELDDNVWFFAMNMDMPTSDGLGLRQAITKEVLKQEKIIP
Protocol: as §1

[9] = tested on: KP1007 (OXA-10); experiment: Aztreonam potentiation (MPC@4); format: cell-based; conditions: BLI concentration inhibiting growth with 4 μg/mL aztreonam; class D
[10] = tested on: KP1009 (CTX-M-15); experiment: Aztreonam potentiation (MPC@4); format: cell-based; conditions: BLI concentration inhibiting growth with 4 μg/mL aztreonam; class A
[11] = tested on: KP1004 (KPC-2); experiment: Aztreonam potentiation (MPC@4); format: cell-based; conditions: BLI concentration inhibiting growth with 4 μg/mL aztreonam; class A
[12] = tested on: KPX1001 (OXA-2); experiment: Aztreonam potentiation (MPC@4); format: cell-based; conditions: BLI concentration inhibiting growth with 4 μg/mL aztreonam; class D
[13] = tested on: ECL1002 (class C); experiment: Aztreonam potentiation (MPC@4); format: cell-based; conditions: BLI concentration inhibiting growth with 4 μg/mL aztreonam
[14] = tested on: KP1009 (CTX-M-15); experiment: Tigemonam potentiation (MPC@4); format: cell-based; conditions: BLI concentration inhibiting growth with 4 μg/mL tigemonam; class A
[15] = tested on: ECL1002 (class C); experiment: Tigemonam potentiation (MPC@4); format: cell-based; conditions: BLI concentration inhibiting growth with 4 μg/mL tigemonam
[16] = tested on: ec308 (SHV-5); experiment: Aztreonam potentiation (MPC@4); format: cell-based; conditions: BLI concentration inhibiting growth with 4 μg/mL aztreonam; class A
[17] = tested on: KP1005 (CTX-M-14); experiment: Tigemonam potentiation (MPC@4); format: cell-based; conditions: BLI concentration inhibiting growth with 4 μg/mL tigemonam; class A
[18] = tested on: EC1010 (CMY-6); experiment: Tigemonam potentiation (MPC@4); format: cell-based; conditions: BLI concentration inhibiting growth with 4 μg/mL tigemonam; class C
[19] = tested on: KP1007 (OXA-10); experiment: Tigemonam potentiation (MPC@4); format: cell-based; conditions: BLI concentration inhibiting growth with 4 μg/mL tigemonam; class D
[20] = tested on: KP1010 (SHV-12); experiment: Aztreonam potentiation (MPC@4); format: cell-based
[21] = tested on: ec302 (TEM-10); experiment: Aztreonam potentiation (MPC@4); format: cell-based; conditions: BLI concentration inhibiting growth with 4 μg/mL aztreonam; class A
[22] = tested on: ec308 (SHV-5); experiment: Tigemonam potentiation (MPC@4); format: cell-based; conditions: BLI concentration inhibiting growth with 4 μg/mL tigemonam; class A
[23] = tested on: EC1010 (CMY-6); experiment: Aztreonam potentiation (MPC@4); format: cell-based; conditions: BLI concentration inhibiting growth with 4 μg/mL aztreonam; class C
[24] = tested on: ec302 (TEM-10); experiment: Tigemonam potentiation (MPC@4); format: cell-based; conditions: BLI concentration inhibiting growth with 4 μg/mL tigemonam; class A
[25] = target: SHV-12 (Klebsiella pneumoniae, UniProt P0AD64, E235K/G234S/L31Q); experiment: Inhibition of nitrocefin cleavage by purified enzyme; format: biochemical; conditions: nitrocefin reporter substrate, 10 min preincubation, read-out: Ki (SHV-12, NCF)
Chain of SHV-12 (P0AD64 22-286 L31Q/G234S/E235K): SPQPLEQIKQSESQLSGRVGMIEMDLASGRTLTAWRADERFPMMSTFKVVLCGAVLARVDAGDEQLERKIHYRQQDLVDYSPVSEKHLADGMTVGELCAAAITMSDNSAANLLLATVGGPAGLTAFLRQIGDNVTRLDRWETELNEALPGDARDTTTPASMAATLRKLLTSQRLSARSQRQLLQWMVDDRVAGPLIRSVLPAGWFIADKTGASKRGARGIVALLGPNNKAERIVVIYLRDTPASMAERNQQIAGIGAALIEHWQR
Protocol: as §1

[26] = target: P99 /AmpC of ECL (Enterobacter cloacae, UniProt P05364); experiment: biochemical; conditions: purified enzyme, nitrocefin reporter substrate, 10 min preincubation; read-out: Ki (P99 /AmpC of ECL, NCF)
Chain of P99 /AmpC of ECL (P05364 21-381): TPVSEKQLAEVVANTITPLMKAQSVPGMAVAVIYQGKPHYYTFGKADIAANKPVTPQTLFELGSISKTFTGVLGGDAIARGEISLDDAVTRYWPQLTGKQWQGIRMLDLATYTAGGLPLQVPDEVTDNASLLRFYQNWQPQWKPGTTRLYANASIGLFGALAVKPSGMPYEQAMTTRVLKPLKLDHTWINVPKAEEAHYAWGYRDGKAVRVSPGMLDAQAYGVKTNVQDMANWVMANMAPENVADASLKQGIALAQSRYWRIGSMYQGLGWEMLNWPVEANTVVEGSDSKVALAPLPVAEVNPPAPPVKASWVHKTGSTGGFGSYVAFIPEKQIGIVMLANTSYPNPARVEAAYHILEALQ

[27] = tested on: KP1007 (OXA-10); experiment: Tigemonam MIC of test strain; conditions: strain KP1007, OXA-10, class D
[28] = tested on: KP1010 (SHV-12); experiment: Tigemonam MIC of test strain
[29] = tested on: ec302 (TEM-10); experiment: Tigemonam MIC of test strain
[30] = tested on: EC1010 (CMY-6); experiment: Tigemonam MIC of test strain; conditions: strain EC1010, CMY-6, class C
[31] = tested on: ECL1002 (class C); conditions: strain ECL1002, class C
[32] = tested on: KP1005 (CTX-M-14)
[33] = purified enzyme, nitrocefin reporter substrate, 10 min preincubation, read-out: Ki (CMY-2, NCF)
[34] = purified enzyme, nitrocefin reporter substrate, 10 min preincubation, read-out: Ki (KPC-2, NCF)
[35] = purified enzyme, nitrocefin reporter substrate, 10 min preincubation, read-out: Ki (OXA-48, NCF)
[36] = BLI concentration inhibiting growth with 4 μg/mL aztreonam, class A

C[C@H]1[C@H](NC(=O)/C(=N\OC(C)(C)C(=O)O)c2csc(N)n2)C(=O)N1S(=O)(=O)O [Aztreonam]
MIC [1]: 64 µg/mL
MIC [2]: 64 µg/mL

O=C(O)[C@H]1/C(=C/CO)O[C@@H]2CC(=O)N21 [Clavulanic Acid]
MPC4 SHV-12 KP1010 [3]: <=0.6 μg/mL
AZT MPC4 CTX-M-14 KP1005 [4]: 1.25 µg/mL
Ki [5, 33]: > 100000 nM
Ki [6]: 27 nM
Ki [7, 34]: 41200 nM
Ki [8, 35]: 18600 nM
AZT MPC@4 OXA-10, KP1007 [9]: 0.08 µg/mL
AZT MPC4 CTX-M-15 KP1009 [10]: 1.25 µg/mL
AZT MPC4 KPC-2 KP1004 [11]: >40 µg/mL
AZT MPC@4 OXA-2, KPX1001 [12]: 5 µg/mL
AZT MPC@4 ECL1002 [13]: >40 µg/mL
MPC4 CTX-M-15 KP1009 [14]: 1.25 µg/mL
MPC4 ECL1002 [15]: >40 µg/mL
AZT MPC4 SHV-5 ec308 [16]: 0.08 µg/mL
MPC4 CTX-M-14 KP1005 [17]: 2.5 µg/mL
MPC4 CMY-6, EC1010 [18]: 40 µg/mL
MPC4 OXA-10, KP1007 [19]: <=0.6 μg/mL
AZT MPC4 SHV-12 KP1010 [20, 36]: 0.04 µg/mL
AZT MPC4 TEM-10 ec302 [21]: 0.3 µg/mL
MPC4 SHV-5 ec308 [22]: <=0.6 μg/mL
AZT MPC@4 CMY-6 EC1010 [23]: 40 µg/mL
MPC4 TEM-10 ec302 [24]: 2.5 µg/mL

O=C(Cc1cccs1)N[C@@H](Cn1cc(C(=O)O)nn1)B(O)O [Compound 1, (R)-1-(2-borono-2-(2-(thiophen-2-yl)acetamido)ethyl)-1H-1,2,3-triazole-4-carboxylic acid]
MPC4 SHV-12 KP1010 [3]: 0.3 µg/mL
AZT MPC4 CTX-M-14 KP1005 [4]: 1.25 µg/mL
Ki [5, 33]: 60 nM
Ki [6]: 5 nM
Ki [25]: 5 nM
Ki [7, 34]: 39 nM
Ki [8, 35]: 23300 nM
AZT MPC@4 OXA-10, KP1007 [9]: 0.6 µg/mL
Ki [26]: 80 nM
AZT MPC4 CTX-M-15 KP1009 [10]: 10 µg/mL
AZT MPC4 KPC-2 KP1004 [11]: 5 µg/mL
AZT MPC@4 OXA-2, KPX1001 [12]: 40 µg/mL
AZT MPC@4 ECL1002 [13]: 20 µg/mL
MPC4 CTX-M-15 KP1009 [14]: 1.25 µg/mL
MPC4 ECL1002 [15]: 5 µg/mL
AZT MPC4 SHV-5 ec308 [16]: 0.6 µg/mL
MPC4 CTX-M-14 KP1005 [17]: 2.5 µg/mL
MPC4 CMY-6, EC1010 [18]: 0.6 µg/mL
MPC4 OXA-10, KP1007 [19]: 0.3 µg/mL
AZT MPC4 SHV-12 KP1010 [20, 36]: 0.3 µg/mL
AZT MPC4 TEM-10 ec302 [21]: >40 µg/mL
MPC4 SHV-5 ec308 [22]: 2.5 µg/mL
AZT MPC@4 CMY-6 EC1010 [23]: 20 µg/mL
MPC4 TEM-10 ec302 [24]: >40 µg/mL

C[C@]1(Cn2ccnn2)[C@H](C(=O)O)N2C(=O)C[C@H]2S1(=O)=O [Tazobactam]
MPC4 SHV-12 KP1010 [3]: 1.25 µg/mL
AZT MPC4 CTX-M-14 KP1005 [4]: 10 µg/mL
Ki [5]: 710 nM
Ki [7]: 1600 nM
Ki [8]: 160 nM
AZT MPC@4 OXA-10, KP1007 [9]: 5 µg/mL
AZT MPC4 CTX-M-15 KP1009 [10]: 20 µg/mL
AZT MPC4 KPC-2 KP1004 [11]: >40 µg/mL
AZT MPC@4 OXA-2, KPX1001 [12]: >40 µg/mL
AZT MPC@4 ECL1002 [13]: >40 µg/mL
MPC4 CTX-M-15 KP1009 [14]: 10 µg/mL
MPC4 ECL1002 [15]: 10 µg/mL
AZT MPC4 SHV-5 ec308 [16]: 10 µg/mL
MPC4 CTX-M-14 KP1005 [17]: 10 µg/mL
MPC4 CMY-6, EC1010 [18]: 2.5 µg/mL
MPC4 OXA-10, KP1007 [19]: 5 µg/mL
AZT MPC4 SHV-12 KP1010 [20]: 1.25 µg/mL
AZT MPC4 TEM-10 ec302 [21]: 5 µg/mL
MPC4 SHV-5 ec308 [22]: 5 µg/mL
AZT MPC@4 CMY-6 EC1010 [23]: 20 µg/mL
MPC4 TEM-10 ec302 [24]: 5 µg/mL

CC1(C)[C@H](NC(=O)/C(=N\OCC(=O)O)c2csc(N)n2)C(=O)N1OS(=O)(=O)O [Tigemonam]
Tigemonam MIC [27]: >64 µg/mL
Tigemonam MIC [28]: 256 µg/mL
Tigemonam MIC [29]: >512 µg/mL
Tigemonam MIC [30]: 16 µg/mL
Tigemonam MIC [31]: 32 µg/mL
Tigemonam MIC [32]: 512 µg/mL
